According to patent US20040063710A1, “Ophthalmological preparations” (priority 2000, published 2004):

Key:
retinal ganglion cells = experiment: Inhibitory effect against retinal ganglion cell death caused by glutamate; assay type: cell-based, Wister rat; conditions: 10^-7 M, 10^-6 M, 10^-5 M MCI-154; 250 μM glutamate, 48 hours culture; versus control group
Protocol: In accordance with the method of Otori et al. (Investigative Ophthalmology & Visual Science, Vol. 39, No. 6, 1998), retinal ganglion cells were isolated from a 6 day-old Wister rat, and approximately 300 cells were plated on each cover glass having a diameter of 12 mm with poly-L-lysine and laminin coatings, that was inserted in each well of a 24-well culture plate, and then were cultured for 24 hours. The cells were divided into an untreated group, a control group, and medicament-treated group, each consisting of 2 wells. To the untreated and control groups, a basic culture medium was added, and to the medicament-treated groups, MCI-154 was added at various concentrations. After 4 hours of culture, 250 μM of glutamate was added to all of the groups except for the untreated group, followed by further culture for 48 hours. After the culture for 48 hours, cells were stained with 1 μM calcein acetoxymethyl ester, and the number of cells with neurites growing more than twice as long as the cell body diameter was counted as viable cells under a fluorescence microscope. Independent three experiments were performed in duplicate.
Medicament-treated group: 10^−7 M, 10^−6 M, and 10^−5 M MCI-154
Basic culture medium: Neurobasal (Gibco, Grand Island, N.Y.) including 1 mM glutamine, 10 μg/ml gentamycin, and 40 ng/ml […], CNTF, and b-FGF. […]

[1] = tested on: retinal degeneration caused by transient retinal ischemia; experiment: Inhibitory effect against retinal degeneration induced by transient retinal ischemia; assay type: in vivo, Wister male rats; conditions: 0.1 mg/kg into caudal vein just before and immediately after ocular hypertension treatment (130 mmHg, 50 minutes); 7 days after; versus control group
Protocol: Wister male rats (body weight of about 200 g) was used. Each animal was subjected to sufficient warming treatment by using a thermal plate under anesthesia, and the head was fixed by using a stereotaxic apparatus. In order to induce transient retinal ischemia, IOP was maintained at 130 mmHg for 50 minutes by injecting intraocular irrigating solution into the anterior chamber via the cornea using an infusion tube and 30 G injection needle which were connected to a bottle held at 174 cm above the eyes (ocular hypertension treatment) according to the method of Akaike (Folia Pharmacologica Japonica, 111, pp.97-104(1998)). The ocular hypertension treatment was performed only on the right eye, and the left eye was left untreated. Just before and immediately after the ocular hypertension treatment, a physiological saline or a dose of 0.1 mg/kg of MCI0154 was injected to the caudal vein. Seven days after the ocular hypertension treatment, the animal was sacrificed under anesthesia, and eyeballs were isolated and a light microscopic specimens of horizontal sections of retina were prepared. Under a microscope, thickness of the retina (from inner plexiform layer to outer plexiform layer) was measured using a micrometer. […] 7 days after the ocular hypertension treatment. Data represent means±SEM (standard errors), and the number of rats for each group was 10. […]

[2] = tested on: left atrium of guinea pig; experiment: Isolated left atrium of guinea pig; conditions: Dose 3 × 10^-5 g/ml
Protocol: A left atrium was isolated from a male guinea pig with 200-300 g of body weight soon after striking on the back of its head. The mitral orifice was fixed to the bottom of an organ bath filled with 30 ml of Krebs-Henseleit solution maintained at 35° C. A gas mixture comprising 95% O2 and 5% CO2 was passed through the Krebs-Henseleit solution in the organ bath. Isometric tension was measured by connecting a left auricle of heart and a transducer by a yarn. A resting tension of 0.5 g was given to the atrium, which was then electrically driven with square pulses with duration of 1 msec and voltage of 1.5 times as much as threshold in the rate 2 Hz via dipolar platinum electrodes. After stabilizing the atrium for 30 minutes from its preparation, the compound dissolved in a solvent was added to the organ bath to measure its effect.

## O=C1CCC(c2ccc(Nc3ccncc3)cc2)=NN1 [MCI-154, 6-[4-(4-pyridylamino)phenyl]-4,5-dihydro-3 (2H)pyridazinone]
Retinal ganglion cells
  inhibition of retinal ganglion cell death induced by glutamate (viable cells relative to untreated group): significantly inhibits
[1]
  inhibition of retinal degeneration caused by transient retinal ischemia (retinal thickness ratio): significantly inhibits
[2]
  Contraction of left atrium of guinea pig, Increase (%): 188%
